Laboratory results published in publication PMC12281142, “A potent phenylalkylamine disrupts mycobacterial membrane bioenergetics and augments bactericidal activity of bedaquiline” (iScience, 2025).

Tested on: M. bovis BCG
Assay type: cell-based, Mycobacterium bovis BCG
Settings: 2x MIC90BCG, 6 h time point, cultures still viable

For `CCCCCCCCC(C#N)(CCCN(C)CCc1ccc(OC)c(OC)c1)c1ccc(OC)c(OC)c1` (stereo not shown) [PhA2], which membrane depolarization is on record?
Its membrane depolarization is “depolarization was evident”.
